Source: patent publication US11103582B2, “Method to achieve extended expression of DNA infused into liver” (IMMUSOFT CORPORATION, priority 2012, dated 2021)

Tested on: Kupffer cells
Conditions: Dog #17: dexamethasone 1 mg/kg days −1, 0, 2, 4 then twice weekly + cyclophosphamide 10 mg/kg day 0 then weekly; no GdCl3; pKT2/CLP-cSEAP//PGK-SB100x into LHV
Description: Infusions of pKT2/clp-cSEAP//PGK-SB100x (FIG. 2) into the left hepatic vein were carried out as described in the text, collecting plasma samples before, during and after the infusion procedure and assaying for heat stable alkaline phosphatase activity.

Compound	Time after which cSEAP expression was extinguished
C[C@@H]1C[C@H]2[C@@H]3CCC4=CC(=O)C=C[C@]4(C)[C@@]3(F)[C@@H](O)C[C@]2(C)[C@@]1(O)C(=O)CO [Dexamethasone]	about 4 weeks
O=P1(N(CCCl)CCCl)NCCCO1 (centres unmarked) [Cyclophosphamide]	about 4 weeks
